Experimental data: PMC9139979, “Features of ZED1227: The First-In-Class Tissue Transglutaminase Inhibitor Undergoing Clinical Evaluation for the Treatment of Celiac Disease” (Cells, 2022)
Several values for one entry are separate records, joined by “and”; a condition that tells them apart may be missing. Equal values may be shown once. Entries after “also recorded” stand apart in the source; their conditions may differ. Read-outs that look alike come from different tables or passages of the source.

Tests used:
[1] = Stability in PBS and artificial gastric and intestinal fluid (residual parent compound); format: physicochemical; settings: for Stability in PBS/saline (residual parent compound): initial 100 μM
Method: (§1) The logD value (distribution coefficient) of the compound was determined by means of the shake flask method, measuring the distribution of the solute in octanol and phosphate-buffered saline (PBS, pH 7.4). The concentration of ZED1227 in the immiscible solvents was determined by HPLC (vide supra). The stability in PBS (pH 7.4 or acidified to pH 5.0), in artificial gastric, and intestinal fluid was calculated as the percentage of residual parent compound after incubation for 24 h at 37 °C, using an initial concentration of 100 μM.

[2] = Solubility in PBS (pH 7.4) and diluted HCl (pH 1.1) by HPLC; format: physicochemical
[3] = test system: healthy female and male volunteers; test: Phase 1 clinical trial in healthy individuals; format: in vivo, human
Method: The phase 1 clinical trial involved more than 100 healthy individuals exposed to up to 500 mg of ZED1227. […] Accordingly, the new chemical entity was progressed to a phase 2a clinical study. The efficacy and safety of a 6-week treatment with ZED1227 was assessed in a randomized, double-blind, placebo-controlled, dose-finding trial at three dose levels (10, 50, 100 mg). In this trial, adult patients with well-controlled celiac disease were challenged with 3 g daily gluten intake to assess the protective effect of ZED1227 on the mucosa. […] Based on the promising results a phase 2b study was initiated in celiac disease patients suffering from symptoms despite following a “gluten-free diet”—essentially an adjunct treatment. There will be no gluten challenge in this “real-life” study, which aims to further substantiate the protective effect of ZED1227 and impact on quality of life in celiac disease patients. It remains to be seen whether the promising clinical data obtained so far translate into a viable, commercially successful drug for patient benefit.

Caco-2 cells = test: BrdU cell proliferation ELISA, Caco-2; format: cell-based, human; settings: up to 1,000 μM, 24 h + 24 h
Method: Cytotoxicological analysis of ZED1227 was performed using Huh7 (human liver carcinoma, CLS Cell Lines Service GmbH, Eppelheim, Germany) and Caco-2 cells (human epithelial colorectal adenocarcinoma, Sigma Aldrich, Taufkirchen, Germany) with respect to the effect on proliferation and viability, according to the assay protocols provided by the manufacturers of the respective kits. The Cell Proliferation ELISA (BrdU, colorimetric) was purchased from Roche (Mannheim, Germany), whereas the Cell Proliferation and Cytotoxicity Assay EZ4U was purchased from Biomedica (Vienna, Austria). Briefly, Caco-2 cells (in MEM with 1% non-essential amino acid solution, both Sigma Aldrich (Taufkirchen, Germany), 10% fetal bovine serum, 2 mM L-glutamine, 100 U/mL penicillin–streptomycin, all from Gibco) or Huh7 cells (in DMEM low glucose, Sigma Aldrich (Taufkirchen, Germany), 10% fetal bovine serum, 1 mM sodium pyruvate, 100 U/mL penicillin–streptomycin, all from Gibco) were cultured in 96 well plates, using 2.5 μg/mL cycloheximide and 0.2 μg/mL camptothecin-treated cells as positive control. In the 5-bromo-2′-deoxyuridine (BrdU) assay (determination of cell proliferation), the cells were incubated with ZED1227 working solution (1% DMSO in culture medium) up to a concentration of 1,000 μM for 24 h, followed by addition of BrdU into the culture medium and further culturing for 24 h. […]

Huh7 cells = test: EZ4U viability assay, Huh7; format: cell-based; settings: up to 1,000 μM, 48 h
Method: Cytotoxicological analysis of ZED1227 was performed using Huh7 (human liver carcinoma, CLS Cell Lines Service GmbH, Eppelheim, Germany) and Caco-2 cells (human epithelial colorectal adenocarcinoma, Sigma Aldrich, Taufkirchen, Germany) with respect to the effect on proliferation and viability, according to the assay protocols provided by the manufacturers of the respective kits. The Cell Proliferation ELISA (BrdU, colorimetric) was purchased from Roche (Mannheim, Germany), whereas the Cell Proliferation and Cytotoxicity Assay EZ4U was purchased from Biomedica (Vienna, Austria). […]
The EZ4U assay (determination of viability) was performed by incubating the cells with ZED1227 working solution (1% DMSO in culture medium) up to a concentration of 1,000 μM for 48 h, followed by addition of a yellow tetrazolium reagent (not further specified) into the culture medium. The non-toxic tetrazolium salts were reduced to red-colored formazan which was quantified spectrophotometrically. […]

hFXIII-A2 = molecular target: T1, hFXIII-A2 (Homo sapiens, UniProt P00488); test: Fluorescent transamidation assay (DCC-assay), hFXIII-A2; format: biochemical
T1 construct: purchased Zedira T027
T1 sequence (P00488 39-732 limits assumed): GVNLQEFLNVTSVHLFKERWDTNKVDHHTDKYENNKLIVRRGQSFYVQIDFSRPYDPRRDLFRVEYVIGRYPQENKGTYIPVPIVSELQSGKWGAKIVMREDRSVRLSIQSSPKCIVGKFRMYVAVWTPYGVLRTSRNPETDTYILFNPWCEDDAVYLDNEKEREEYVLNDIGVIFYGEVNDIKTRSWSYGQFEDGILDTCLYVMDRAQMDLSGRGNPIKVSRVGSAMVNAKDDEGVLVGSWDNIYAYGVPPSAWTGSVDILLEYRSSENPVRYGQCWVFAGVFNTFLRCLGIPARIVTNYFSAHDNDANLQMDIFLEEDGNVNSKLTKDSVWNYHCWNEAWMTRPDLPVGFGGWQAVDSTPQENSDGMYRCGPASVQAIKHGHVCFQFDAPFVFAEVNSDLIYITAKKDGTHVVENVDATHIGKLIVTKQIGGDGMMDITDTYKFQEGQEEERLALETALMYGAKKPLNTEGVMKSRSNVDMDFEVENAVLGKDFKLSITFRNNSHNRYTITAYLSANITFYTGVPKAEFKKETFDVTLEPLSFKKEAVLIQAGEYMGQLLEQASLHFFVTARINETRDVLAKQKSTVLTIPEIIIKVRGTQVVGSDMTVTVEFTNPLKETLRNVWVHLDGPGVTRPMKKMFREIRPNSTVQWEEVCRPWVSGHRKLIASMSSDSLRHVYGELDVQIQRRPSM

[4] = logD by shake flask method (octanol/PBS pH 7.4); format: physicochemical
Method: as §1

For CCC(CC)CNC(=O)Cn1cccc(NC(=O)[C@H](CC/C=C/C(=O)OC)NC(=O)c2cncn2C)c1=O [ZED1227, (S,E)-Methyl 7-(1-(2-(2-ethylbutylamino)-2-oxoethyl)-2-oxo-1,2-dihydropyridin-3-ylamino)-6-(1-methyl-1H-imidazole-5-carboxamido)-7-oxohept-2-enoate], the “Recovery at low pH and in simulated gastric and intestinal fluid” value ([1]; after 24 h, summary statement) was > 80%, the “Stability in PBS/saline (residual parent compound)” value ([1]; pH 5.0, 24 h, 37 °C) was 89% and the “Stability in PBS/saline (residual parent compound)” value ([1]; pH 7.4, 24 h, 37 °C) was 10%. The “Stability in artificial gastric fluid (residual parent compound)” value ([1]; simulated gastric fluid pH 1.2, 24 h, 37 °C) was 95%, the “Stability in artificial intestinal fluid (residual parent compound)” value ([1]; simulated intestinal fluid pH 6.5, 24 h, 37 °C) was 82% and the solubility ([2]; phosphate-buffered saline, aqueous buffer, PBS pH 7.4, read-out: Solubility at pH 7.4) was 100 µM and 50 µg/mL. For the same compound, the solubility ([2]; simulated gastric fluid, diluted HCl pH 1.1, read-out: Solubility at pH 1.1) was 48900 µM and 25900 µg/mL, the “Safety and tolerability, phase 1” value ([3]; more than 100 healthy individuals, up to 500 mg, EudraCT 2014-003044-13 and 2015-005283-42) was “safe and well-tolerated” and the “Overall safety and tolerability, phase 1 and phase 2a” value ([3]; more than 100 healthy volunteers and 123 patients in verum groups) was “safe and well-tolerated”. The “Cytotoxicity: Proliferation, Caco-2 cells” value (Caco-2 cells) was “nor did it affect cell proliferation rates; also recorded: no effect up to 1,000 μM no effect up to 1,000 μM no effect up to 1,000 μM no effect up to 1,000 μM”, the “Cytotoxicity: Viability, Huh7 cells” value (Huh7 cells) was “not cytotoxic up to 1,000 μM; also recorded: no effect up to 1,000 μM no effect up to 1,000 μM no effect up to 1,000 μM no effect up to 1,000 μM” and the “Selectivity hFXIII-A2 versus hTG2” value (hFXIII-A2; ratio of app. IC50 values) was >900 fold. For the same compound, the IC50 (hFXIII-A2; recombinant, thrombin activated, transamidation assay, read-out: App. IC50 hFXIII-A2) was > 50 µM and the logD [4] was 2.
